Source: patent publication US20060169172A1, “Disazo compound and ink composition containing the same” (priority 2003, published 2006)

How the values were obtained:
Type in all cases: physicochemical
[1] = Test for ozone fastness (ozone weather meter); conditions: 24° C., 12 ppm, 60% RH, 2 hours
Description: (§1) The solution of the composition shown in Table 2 below, containing the disazo compound (a dyestuff component) obtained in Example 1 or 2 was prepared and filtered with a 0.45 μm membrane filter to obtain each water-based yellow ink composition for ink-jet printing. Ion-exchange water was used. Water and ammonium hydroxide were added so that the pH of the ink composition is 8 to 10 and the total amount is 100 parts.
(§2) Ink-jet recording is carried out on four kinds of recording materials of plain paper, Professional photo paper (PR-101 (made by Canon Inc.)), Photo glossy film (HG-201 (made by Canon Inc.)) and Paper for PM photo (made by SEIKO EPSON CORP.), using an ink-jet printer (Trade name: BJ S-630 from Canon Inc.) (hereinafter, described as follows, PR: Professional photo paper, HG: Photo glossy film, PM: Paper for PM photo).
(§3) A sample piece having a recorded image printed on the sample piece was left for standing at 24° C., 12 ppm and 60% RH for 2 hours using an ozone weather meter (Model OMS-H made by Suga Test Instruments Co., Ltd.). Densities (D values) before and after the test were measured. (4) A sample piece having a recorded image printed on the sample piece for a moisture fastness test was left for standing at 50° C. and 90% RH for 150 hours in a thermo-hygrostat (made by Ouyou giken sangyou Corp.). Bleeding degrees before and after the test was evaluated by visual inspection.
(§4) The results of evaluation of the ink composition prepared using the compound obtained in Example 1 are referred to Evaluation Example 1, and similarly the results of evaluation of the ink composition prepared using the compound obtained in Example 2 are referred to Evaluation Example 2. The compound represented by the following formula (6) and the compound represented by the following formula (7) were used as Comparative Example 1 and Comparative Example 2 and those were evaluated at the same optical density as those of Evaluation Examples 1 and 2 in the composition shown in Table 2.

[2] = Test for light fastness (xenon weather meter); conditions: 24° C., 60% RH, 50 hours
Description: as §1, §2
The recorded image was irradiated at 24° C. and 60% RH for 50 hours using a xenon weather meter (made by Atlas Corp.). Densities (D values) of the images before and after the irradiation were measured by means of the above calorimetric system.
Residual ratio (%)=D value after irradiation/D value before irradiation
as §4

[3] = Moisture fastness test (bleeding, visual inspection); parameters: key: ◯: No bleeding is observed.; Δ: Bleeding is a little observed.; X: Bleeding is seriously observed; conditions: 50° C., 90% RH, 150 hours
Description: as §1, §2, §3
◯: No bleeding is observed.
Δ: Bleeding is a little observed.
X: Bleeding is seriously observed.
as §4

SMILES	Ozone Fastness (residual ratio) ([1]; HG (Photo glossy film)) [%]	Ozone Fastness (residual ratio) ([1]; PM (Paper for PM photo)) [%]	Ozone Fastness (residual ratio) ([1]; PR (Professional photo paper)) [%]	Ozone Fastness (residual ratio) ([1]; Plain Paper) [%]	Light Fastness (residual ratio) ([2]; HG (Photo glossy film)) [%]	Light Fastness (residual ratio) ([2]; PM (Paper for PM photo)) [%]	Light Fastness (residual ratio) ([2]; PR (Professional photo paper)) [%]	Light Fastness (residual ratio) ([2]; Plain Paper) [%]	Moisture Fastness ([3]; HG (Photo glossy film))	Moisture Fastness ([3]; PM (Paper for PM photo))	Moisture Fastness ([3]; PR (Professional photo paper))	Moisture Fastness ([3]; Plain Paper)
COc1cc(N=Nc2cccc(S(=O)(=O)[O-])c2)ccc1NC(=O)Nc1ccc(N=Nc2cccc(S(=O)(=O)[O-])c2)cc1OC.[Na+].[Na+] [Comparative Example 2]	74	97	82	98	63	94	82	81	Δ	X	◯	◯
COc1cc(N=Nc2cccc(S(=O)(=O)[O-])c2)ccc1Nc1nc(Nc2ccc(N=Nc3cccc(S(=O)(=O)[O-])c3)cc2OC)nc(N(CCO)CCO)n1.[Na+].[Na+] [Comparative Example 1]	91	97	89	99	67	86	80	78	◯-Δ	◯-Δ	◯	◯
